Experimental findings from ChEMBL document CHEMBL1133556, “Carbonic anhydrase inhibitors: water-soluble 4-sulfamoylphenylthioureas as topical intraocular pressure-lowering agents with long-lasting effects” (J Med Chem, 2000) are described below.

Converted amounts (≈) assume the structure as drawn.

In series [1] the test system is Oryctolagus cuniculus. The series can be described thus: Tested in vivo for lowering IOP (Intraocular Pressure)in Normotensive Rabbits at pH 7.0 after treatment with 50 uL, activity at 60 minutes. Format: functional.
For a further series, the target named is T1, Carbonic anhydrase 4 (Bos taurus, UniProt Q95323).
T1 sequence (Q95323 whole entry): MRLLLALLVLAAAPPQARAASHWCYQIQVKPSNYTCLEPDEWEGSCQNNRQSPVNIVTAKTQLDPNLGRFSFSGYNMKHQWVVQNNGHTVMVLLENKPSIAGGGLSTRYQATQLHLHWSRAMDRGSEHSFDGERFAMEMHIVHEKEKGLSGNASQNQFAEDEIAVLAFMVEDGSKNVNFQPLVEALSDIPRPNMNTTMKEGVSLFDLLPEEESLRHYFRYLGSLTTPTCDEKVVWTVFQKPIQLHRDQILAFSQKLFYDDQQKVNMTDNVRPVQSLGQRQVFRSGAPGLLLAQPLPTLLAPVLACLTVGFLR

Another series addresses Carbonic anhydrase 1 (Homo sapiens, UniProt P00915).
In series [2] the test system is Oryctolagus cuniculus. The series can be described thus: Tested in vivo for lowering IOP (Intraocular Pressure)in Normotensive Rabbits at pH 7.0. after treatment with 50 uL, activity at 90 minutes. Format: functional.
In a further series the target is Carbonic anhydrase 2 (Homo sapiens, UniProt P00918).
The species entered for series [3] is Oryctolagus cuniculus.
The nature of series [4]: physchem. Conditions: buffer, pH 7.4.
Description: (§1) Solubility (in uM) in pH 7.40 at 25 degree C
Series [5] is filed under the species Oryctolagus cuniculus. The source holds these as a separate data set.
Description: Tested in vitro for transcorneal accession rates (corneal permeability) against cornea with no epithelium
The conditions of series [6]: octanol/water.
Description: Partition coefficient (logD) (chloroform/buffer)
The species named for series [7] is Oryctolagus cuniculus. The source holds these as a separate data set.
Description: Tested in vitro for transcorneal accession rates (corneal permeability) against intact cornea
The species named for series [8] is Oryctolagus cuniculus. The source holds these as a separate data set.
The species named for series [9] is Oryctolagus cuniculus. The source holds these as a separate data set.
For series [10], the species on record is Oryctolagus cuniculus. The source holds these as a separate data set.
Description: Tested in vivo for lowering IOP (Intraocular Pressure)in Normotensive Rabbits at pH 6.5 after treatment with 50 uL, activity at 90 minutes
In series [11] the test system is Oryctolagus cuniculus. The series can be described thus: Tested in vivo for lowering IOP (Intraocular Pressure)in Normotensive Rabbits at pH 6.5 after treatment with 50 uL, activity at 60 minutes. Format: functional.
For series [12], the system named is Oryctolagus cuniculus. The series can be described thus: Tested in vivo for lowering IOP (Intraocular Pressure)in Normotensive Rabbits at pH 6.5 after treatment with 50 uL, activity at 30 minutes. Format: functional.
The test system of series [13] is Oryctolagus cuniculus. The series can be described thus: Tested in vivo for lowering IOP (Intraocular Pressure)in Normotensive Rabbits at pH 7.0 after treatment with 50 uL, activity at 90 minutes. The class given is functional.
For series [14], the species on record is Oryctolagus cuniculus. The series is described as follows: Tested ex vivo for ocular tissue concentration against aqueous humor after 2 hour of treatment with 50 uL. The class given is functional, organism-based. Conditions: Eye.
A short description of series [15]: physchem. Particulars: buffer, pH 7.4. This is another data set of the same source.
Description: as §1
In series [16] the test system is Oryctolagus cuniculus. The series is described as follows: Tested in vivo for lowering IOP (Intraocular Pressure)in Glaucomatous Rabbits at pH 7.0 after treatment with 50 uL, activity at 60 minutes. Format: functional.
For series [17], the species on record is Oryctolagus cuniculus. The series can be described thus: Tested ex vivo for ocular tissue concentration against cornea after 2 hour of treatment with 50 uL. The class given is functional, organism-based.
In series [18] the test system is Oryctolagus cuniculus. The series is described as follows: Tested in vivo for lowering IOP (Intraocular Pressure)in Glaucomatous Rabbits at pH 7.0 after treatment with 50 uL, activity at 90 minutes. The class given is functional.
The species named for series [19] is Oryctolagus cuniculus. The series can be described thus: Tested ex vivo for ocular tissue concentration against aqueous humor after 1 hour of treatment with 50 uL. Format: functional, organism-based. Particulars: Eye.
The species named for series [20] is Oryctolagus cuniculus. The series can be described thus: Tested ex vivo for ocular tissue concentration against ciliary process after 1 hour of treatment with 50 uL. Format: functional, organism-based. Conditions: Eye.
The species entered for series [21] is Oryctolagus cuniculus. The series is described as follows: Tested ex vivo for ocular tissue concentration against ciliary process after 2 hour of treatment with 50 uL. Format: functional, organism-based. Conditions: Eye.
The species entered for series [22] is Oryctolagus cuniculus. The series is described as follows: Tested ex vivo for ocular tissue concentration against cornea after 1 hour of treatment with 50 uL. Format: functional, organism-based.
In series [23] the test system is Oryctolagus cuniculus. The series is described as follows: Tested in vivo for lowering IOP (Intraocular Pressure)in Glaucomatous Rabbits at pH 7.0 after treatment with 50 uL, activity at 30 minutes. Format: functional.
The test system of series [24] is Oryctolagus cuniculus. The series is described as follows: Tested in vivo for lowering IOP (Intraocular Pressure)in Normotensive Rabbits at pH 7.0 after treatment with 50 uL, activity at 30 minutes. The class given is functional.
Series [25] has as its system Oryctolagus cuniculus. The series is described as follows: Tested in vivo for lowering IOP (Intraocular Pressure)in Glaucomatous Rabbits at pH 7.5 after treatment with 50 uL, activity at 60 minutes. The class given is functional.
Series [26] concerns Oryctolagus cuniculus. The series is described as follows: Tested in vivo for lowering IOP (Intraocular Pressure)in Glaucomatous Rabbits at pH 7.5 after treatment with 50 uL, activity at 90 minutes. Format: functional.
Series [27] concerns Oryctolagus cuniculus. The series is described as follows: Tested in vivo for lowering IOP (Intraocular Pressure)in Glaucomatous Rabbits at pH 7.5 after treatment with 50 uL, activity at 30 minutes. Format: functional.

As usually defined, the Ki is a dissociation constant, usually derived from enzyme kinetics or from competition with a known ligand. Lower therefore signals a stronger hold on the target. As usually defined, the solubility is how much of the substance goes into solution per volume. Broadly, the logD is the decadic logarithm of the distribution of all forms, ionised or not, between an organic phase and buffer at a given pH.

Chain of Carbonic anhydrase 1 (P00915 whole entry): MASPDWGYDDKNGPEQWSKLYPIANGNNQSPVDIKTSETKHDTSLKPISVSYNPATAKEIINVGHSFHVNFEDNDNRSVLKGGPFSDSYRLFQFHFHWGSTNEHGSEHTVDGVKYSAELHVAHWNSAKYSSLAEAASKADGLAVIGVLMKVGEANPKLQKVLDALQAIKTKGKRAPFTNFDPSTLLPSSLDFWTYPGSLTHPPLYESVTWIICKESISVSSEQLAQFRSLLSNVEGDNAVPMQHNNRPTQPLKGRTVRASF
Description for Carbonic anhydrase 1: Inhibitory activity against human recombinant carbonic anhydrase I
Description for Carbonic anhydrase 2: Inhibitory activity against human recombinant carbonic anhydrase II
Description for Carbonic anhydrase 4: Inhibitory activity against bovine carbonic anhydrase IV from lung microsomes

Regarding `NCCCCC(/N=C(\S)Nc1ccc(S(N)(=O)=O)cc1)C(=O)O` (configuration not stated), the “Delta IOP” value with Oryctolagus cuniculus [1], in the series on Oryctolagus cuniculus [2] and in the series listed under Oryctolagus cuniculus [3] was 0 mmHg in each case. Besides, the Ki on Carbonic anhydrase 4 was found to be 55 nM; on Carbonic anhydrase 1, 97 nM; at Carbonic anhydrase 2, 12 nM.

With `NS(=O)(=O)c1nnc(NS(=O)(=O)c2ccccc2)s1` [BENZOLAMIDE], the concentration in solution in the series “physchem [4]” (solubility) came to 1.2 mM (≈ 0.384 mg/mL). The kin in the series filed under Oryctolagus cuniculus [5] is 40 h⁻¹; in the series filed under Oryctolagus cuniculus [7], 10 h⁻¹. The same compound returned a pH-dependent lipophilicity (logD) in series [6] of 0.00001.

With `NS(=O)(=O)c1ccc(N/C(S)=N/C(C(=O)O)C(O)c2ccccc2)cc1` (configuration not stated), the solubility in “physchem [4]” stood at 48 mM (≈ 19 mg/mL). Also, the kin in the series listed under Oryctolagus cuniculus [5] was determined as 12300 h⁻¹; in the series filed under Oryctolagus cuniculus [7], 4900 h⁻¹. In [6], the logD is 2.314. In addition, the values for the Ki at Carbonic anhydrase 4, at Carbonic anhydrase 1 and on Carbonic anhydrase 2 were 9 nM, 24 nM and 2 nM, respectively. Also, the “Delta IOP” value in the series listed under Oryctolagus cuniculus [8] came to 10 mmHg; in the series listed under Oryctolagus cuniculus [9] it was 9.6 mmHg; in the series filed under Oryctolagus cuniculus [3], 9 mmHg.

With `NS(=O)(=O)c1ccc(N/C(S)=N\CCc2c[nH]cn2)cc1`, the “Delta IOP” value amounted to 0 mmHg in the series filed under Oryctolagus cuniculus [10], 0.3 mmHg in the series with Oryctolagus cuniculus [11] and 3 mmHg with Oryctolagus cuniculus [12]. The Ki on Carbonic anhydrase 4 is 56 nM; on Carbonic anhydrase 1, 92 nM; on Carbonic anhydrase 2, 33 nM.

Turning to `NS(=O)(=O)c1ccc(N/C(S)=N\c2ccccc2C(=O)O)cc1`, the Ki on Carbonic anhydrase 4 was found to be 29 nM; at Carbonic anhydrase 1, 55 nM; on Carbonic anhydrase 2, 13 nM. The figures for the “Delta IOP” value in the series with Oryctolagus cuniculus [13], in the series filed under Oryctolagus cuniculus [8] and in the series listed under Oryctolagus cuniculus [3] were 0.9 mmHg, 8 mmHg and 4.3 mmHg, respectively.

For `NC(=O)CC(/N=C(\S)Nc1ccc(S(N)(=O)=O)cc1)C(=O)O` (configuration not stated), the Concentration is 43 µM in the series listed under Oryctolagus cuniculus [14]; 54 µM in the series listed under Oryctolagus cuniculus [17]; 285 µM in the series filed under Oryctolagus cuniculus [19]; 47 µM in the series listed under Oryctolagus cuniculus [20]; 12 µM in the series listed under Oryctolagus cuniculus [21]; 141 µM in the series listed under Oryctolagus cuniculus [22]. Further, the solubility in the series “physchem [15]” turned out to be 51 mM (≈ 17.7 mg/mL). In addition, the kin in the series listed under Oryctolagus cuniculus [5] amounted to 7800 h⁻¹; in the series filed under Oryctolagus cuniculus [7], 3100 h⁻¹. In series [6], this compound displayed a logD of 1.759. The values for the Ki on Carbonic anhydrase 4, at Carbonic anhydrase 1 and at Carbonic anhydrase 2 were 11 nM, 27 nM and 6 nM, respectively. Also, the “Delta IOP” value in the series on Oryctolagus cuniculus [16] was 13 mmHg; in the series with Oryctolagus cuniculus [18] it was 15.5 mmHg; in the series listed under Oryctolagus cuniculus [8] it was 10.1 mmHg; in the series on Oryctolagus cuniculus [23], 10 mmHg; in the series filed under Oryctolagus cuniculus [9], 6 mmHg; in the series filed under Oryctolagus cuniculus [3], 7 mmHg.

For `CC(C)CC(/N=C(\S)Nc1ccc(S(N)(=O)=O)cc1)C(=O)O` (configuration not stated), the “Delta IOP” value in the series on Oryctolagus cuniculus [1] is listed as 6.3 mmHg; in the series filed under Oryctolagus cuniculus [9] it was 6 mmHg; in the series filed under Oryctolagus cuniculus [3], 5.2 mmHg. For the same compound, the values for the inhibition constant Ki at Carbonic anhydrase 4, at Carbonic anhydrase 1 and at Carbonic anhydrase 2 were 12 nM, 21 nM and 5 nM, respectively.

For the compound `NS(=O)(=O)c1ccc(N/C(S)=N/C(Cc2c[nH]cn2)C(=O)O)cc1` (configuration not stated), the “Delta IOP” value with Oryctolagus cuniculus [1] amounted to 4.6 mmHg; in the series listed under Oryctolagus cuniculus [9], 4 mmHg; in the series filed under Oryctolagus cuniculus [3] it was 4 mmHg. Moreover, the Ki at Carbonic anhydrase 4 is 15 nM; at Carbonic anhydrase 1, 32 nM; at Carbonic anhydrase 2, 5 nM.

Turning to `NS(=O)(=O)c1ccc(N/C(S)=N\CCCC(=O)O)cc1`, the Ki at Carbonic anhydrase 4 was 33 nM; at Carbonic anhydrase 1, 45 nM; on Carbonic anhydrase 2 it was 11 nM. The “Delta IOP” value in the series on Oryctolagus cuniculus [24] worked out at 5 mmHg; in the series listed under Oryctolagus cuniculus [8], 3.1 mmHg; in the series listed under Oryctolagus cuniculus [9] it was 2.9 mmHg.

Turning to `NS(=O)(=O)c1ccc(N/C(S)=N\Cc2ccccn2)cc1`, in the series listed under Oryctolagus cuniculus [10], the “Delta IOP” value is recorded as 0.6 mmHg. For the same compound, the inhibitory constant (Ki) at Carbonic anhydrase 4 stood at 76 nM; on Carbonic anhydrase 1 it was 135 nM; at Carbonic anhydrase 2, 45 nM.

In the case of `NS(=O)(=O)c1ccc(N/C(S)=N/CCC(=O)NC(Cc2c[nH]cn2)C(=O)O)cc1` (configuration not stated), the concentration in solution in “physchem [4]” (solubility) was 52 mM (≈ 22.9 mg/mL). Moreover, the values for the kin in the series listed under Oryctolagus cuniculus [5] and in the series filed under Oryctolagus cuniculus [7] were 5000 h⁻¹ and 2200 h⁻¹, respectively. In addition, in [6], the log distribution coefficient (logD) was 0.725. Further, the results for the Ki at Carbonic anhydrase 4, at Carbonic anhydrase 1 and at Carbonic anhydrase 2 were 10 nM, 23 nM and 3 nM, respectively. Further, the “Delta IOP” value is 1.2 mmHg in the series listed under Oryctolagus cuniculus [8], 4 mmHg in the series listed under Oryctolagus cuniculus [9] and 1 mmHg in the series listed under Oryctolagus cuniculus [3].

The compound `NS(=O)(=O)c1ccc(N/C(S)=N/C(CO)C(=O)O)cc1` (configuration not stated) gave a solubility in “physchem [15]” of 73 mM (≈ 23.3 mg/mL). The “Delta IOP” value in the series with Oryctolagus cuniculus [1] is 9.5 mmHg; in the series with Oryctolagus cuniculus [25] it was 15 mmHg; with Oryctolagus cuniculus [26] it was 17.5 mmHg; in the series with Oryctolagus cuniculus [27] it was 10.4 mmHg; in the series listed under Oryctolagus cuniculus [9], 9.1 mmHg; in the series filed under Oryctolagus cuniculus [3] it was 8 mmHg. Besides, the results for the kin in the series filed under Oryctolagus cuniculus [5] and in the series listed under Oryctolagus cuniculus [7] were 8000 h⁻¹ and 3400 h⁻¹, respectively. The logD in [6] is reported as 1.459. Besides, the Ki was 15 nM at Carbonic anhydrase 4, 28 nM on Carbonic anhydrase 1 and 3 nM at Carbonic anhydrase 2.

For the compound `NS(=O)(=O)c1ccc(N/C(S)=N/C(CS)C(=O)O)cc1` (configuration not stated), in the series “physchem [15]”, the solubility came to 65 mM (≈ 21.8 mg/mL). For the same compound, the kin in the series listed under Oryctolagus cuniculus [5] was 700 h⁻¹; in the series filed under Oryctolagus cuniculus [7], 300 h⁻¹. Besides, the log distribution coefficient (logD) in series [6] is recorded as 0.09. Besides, the figures for the Ki at Carbonic anhydrase 4, at Carbonic anhydrase 1 and at Carbonic anhydrase 2 were 10 nM, 25 nM and 5 nM, respectively. Moreover, the “Delta IOP” value in the series filed under Oryctolagus cuniculus [8], in the series filed under Oryctolagus cuniculus [9] and in the series listed under Oryctolagus cuniculus [3] was 0 mmHg in each case.

In the case of `CCOc1ccc2nc(S(N)(=O)=O)sc2c1` [ETHOXZOLAMIDE], the solubility in “physchem [4]” is 0.04 mM (≈ 0.0103 mg/mL).
